This note sets out measurements from PubChem BioAssay AID256 (DTP/NCI, 2004).

Several values for one entry are separate records, joined by “and”; a condition that tells them apart may be missing. Identical values can stand only once. Toxic doses and inconclusive results are not listed.

In this assay the test system is CD2F1 mice, L1210 leukemia ip, survival T/C. The experiment in a line: NCI In Vivo Anticancer Drug Screen. Data for tumor model L1210 Leukemia (intraperitoneal) in CD2F1 (CDF1) mice. The following applies: higher = longer survival. The essentials: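 Ratio T/C, where T is the treated-group value and C the vehicle-dosed control value, from mice implanted with a transplantable tumor.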

[1] abbreviates: endpoint: mean survival time, dose: 25.0 mg/kg/injection, schedule: Q01DX009 (ip), vehicle: saline with Tween-80.
[2] abbreviates: endpoint: mean survival time, dose: 50.0 mg/kg/injection, schedule: Q01DX009 (ip), vehicle: saline with Tween-80.
Setting [3] is: endpoint: mean survival time, dose: 100.0 mg/kg/injection, schedule: Q04DX003 (ip), vehicle: saline with Tween-80.
Where [4] appears, read: endpoint: mean survival time, dose: 200.0 mg/kg/injection, schedule: Q04DX003 (ip), vehicle: saline with Tween-80.
The mark [5] stands for this setting: endpoint: mean survival time, dose: 400.0 mg/kg/injection, schedule: Q04DX003 (ip), vehicle: saline with Tween-80.
Setting [6] is: endpoint: mean survival time, dose: 100.0 mg/kg/injection, schedule: Q01DX001 (ip), vehicle: saline.
The mark [7] stands for this setting: endpoint: mean survival time, dose: 200.0 mg/kg/injection, schedule: Q01DX001 (ip), vehicle: saline.

Regarding `CCCCCCCCCCCCCCCCCCN1CCOCC1`, the T/C is 94 % of control (endpoint: mean survival time, dose: 12.5 mg/kg/injection, schedule: Q01DX009 (ip), vehicle: saline with Tween-80); 102 % of control under setting [1]; 94 % of control under setting [2].

With `Cc1ccc(S(=O)(=O)N2CCC(C(=O)O)(c3ccccc3)CC2)cc1`, the T/C is 113 % of control under setting [3], 98 % of control under setting [4] and 95 % of control under setting [5].

Regarding `O=Cc1cc2c3c(c1)CCCN3CCC2`, the T/C is 97 % of control under setting [3], 102 % of control under setting [4] and 94 % of control under setting [5].

With `O=[N+]([O-])c1ccc2c(c1[N+](=O)[O-])CCCC2`, the T/C is, setting by setting: (endpoint: mean survival time, dose: 100.0 mg/kg/injection, schedule: Q01DX001 (ip), vehicle: saline with Tween-80) 104 % of control; (endpoint: mean survival time, dose: 200.0 mg/kg/injection, schedule: Q01DX001 (ip), vehicle: saline with Tween-80) 107 % of control; (endpoint: mean survival time, dose: 400.0 mg/kg/injection, schedule: Q01DX001 (ip), vehicle: saline with Tween-80) 93 % of control.

As for `COC(=O)C1C=C2c3cccc4[nH]cc(c34)CC2N(C)C1` (configuration not stated), the T/C reads like this: (endpoint: mean survival time, dose: 100.0 mg/kg/injection, schedule: Q04DX003 (ip), vehicle: saline sonified) 97 % of control; (endpoint: mean survival time, dose: 200.0 mg/kg/injection, schedule: Q04DX003 (ip), vehicle: saline sonified) 97 % of control; (endpoint: mean survival time, dose: 400.0 mg/kg/injection, schedule: Q04DX003 (ip), vehicle: saline sonified) 109 % of control.

`CCOC(=O)NC(NC(=O)OCC)C(Br)(Br)Br`: the T/C was 103 % of control (endpoint: mean survival time, dose: 200.0 mg/kg/injection, schedule: Q01DX001 (ip), vehicle: Klucel (hydroxypropylcellulose) (HPC)) and 95 % of control (endpoint: mean survival time, dose: 400.0 mg/kg/injection, schedule: Q01DX001 (ip), vehicle: Klucel (hydroxypropylcellulose) (HPC)).

For the molecule `O=C(O)/C=C/CC(=O)O`, the T/C was 92 % of control under setting [6]; 97 % of control under setting [7]; 101 % of control (endpoint: mean survival time, dose: 400.0 mg/kg/injection, schedule: Q01DX001 (ip), vehicle: saline).

Take `CCOC(=O)CCl`: the T/C reads like this: (endpoint: mean survival time, dose: 100.0 mg/kg/injection, schedule: Q04DX003 (ip), vehicle: other) 95 % of control; (endpoint: mean survival time, dose: 200.0 mg/kg/injection, schedule: Q04DX003 (ip), vehicle: other) 90 % of control.

For the molecule `COc1cc(N=Nc2ccc(C(=O)O)cc2)ccc1N(CCCl)CCCl`, the T/C (endpoint: mean survival time, dose: 25.0 mg/kg/injection, schedule: Q04DX003 (ip), vehicle: Klucel (hydroxypropylcellulose) (HPC)) was 106 % of control and 109 % of control; the T/C (endpoint: mean survival time, dose: 50.0 mg/kg/injection, schedule: Q04DX003 (ip), vehicle: Klucel (hydroxypropylcellulose) (HPC)) is 106 % of control and 112 % of control; the T/C (endpoint: mean survival time, dose: 100.0 mg/kg/injection, schedule: Q04DX003 (ip), vehicle: Klucel (hydroxypropylcellulose) (HPC)) was 113 % of control and 98 % of control.

For `CC(O)C[As](=O)(O)c1ccccc1Cl` (configuration not stated), the T/C by setting is: (endpoint: mean survival time, dose: 6.25 mg/kg/injection, schedule: Q04DX003 (ip), vehicle: saline) 107 % of control; (endpoint: mean survival time, dose: 12.5 mg/kg/injection, schedule: Q04DX003 (ip), vehicle: saline) 107 % of control.

For the molecule `c1ccc2c(c1)oc1c3ccccc3c3ccccc3c21`, the T/C is 110 % of control (endpoint: median survival time, dose: 25.0 mg/kg/injection, schedule: Q04DX002 (ip), vehicle: saline with Tween-80); 90 % of control (endpoint: median survival time, dose: 50.0 mg/kg/injection, schedule: Q04DX002 (ip), vehicle: saline with Tween-80); 110 % of control (endpoint: median survival time, dose: 100.0 mg/kg/injection, schedule: Q04DX002 (ip), vehicle: saline with Tween-80); 110 % of control (endpoint: median survival time, dose: 200.0 mg/kg/injection, schedule: Q04DX002 (ip), vehicle: saline with Tween-80).

In the case of `CCCC1OC(C)CC(C)(C)O1` (configuration not stated), the T/C (endpoint: mean survival time, dose: 50.0 mg/kg/injection, schedule: Q01DX009 (ip), vehicle: saline) was 94 % of control; the T/C (endpoint: mean survival time, dose: 100.0 mg/kg/injection, schedule: Q01DX009 (ip), vehicle: saline) is 110 % of control; the T/C (endpoint: mean survival time, dose: 200.0 mg/kg/injection, schedule: Q01DX009 (ip), vehicle: saline) was 90 % of control.

Take `O=[N+]([O-])c1c(Cl)cc(Cl)c(-c2c(Cl)cc(Cl)c([N+](=O)[O-])c2Cl)c1Cl`: the T/C runs as follows: (endpoint: mean survival time, dose: 12.5 mg/kg/injection, schedule: Q01DX009 (ip), vehicle: water) 97 % of control; (endpoint: mean survival time, dose: 25.0 mg/kg/injection, schedule: Q01DX009 (ip), vehicle: water) 100 % of control; (endpoint: mean survival time, dose: 50.0 mg/kg/injection, schedule: Q01DX009 (ip), vehicle: water) 94 % of control; (endpoint: mean survival time, dose: 100.0 mg/kg/injection, schedule: Q01DX009 (ip), vehicle: water) 95 % of control; (endpoint: mean survival time, dose: 200.0 mg/kg/injection, schedule: Q01DX009 (ip), vehicle: water) 94 % of control.

On to `C=C(C)CSc1ccccc1`, for which the T/C was 97 % of control (endpoint: mean survival time, dose: 5.0 mg/kg/injection, schedule: Q01DX001 (ip), vehicle: saline); 97 % of control (endpoint: mean survival time, dose: 10.0 mg/kg/injection, schedule: Q01DX001 (ip), vehicle: saline); 97 % of control (endpoint: mean survival time, dose: 20.0 mg/kg/injection, schedule: Q01DX001 (ip), vehicle: saline); 97 % of control (endpoint: mean survival time, dose: 40.0 mg/kg/injection, schedule: Q01DX001 (ip), vehicle: saline); 97 % of control (endpoint: mean survival time, dose: 80.0 mg/kg/injection, schedule: Q01DX001 (ip), vehicle: saline); 95 % of control under setting [6]. Also, under setting [7], the T/C was 103 % of control.

In the case of `O=C(CCN1CC1)Nc1ccc(NC(=O)CCN2CC2)cc1`, the T/C (endpoint: mean survival time, dose: 5.0 mg/kg/injection, schedule: Q04DX003 (ip), vehicle: Klucel (hydroxypropylcellulose) (HPC)) is 106 % of control and the T/C (endpoint: mean survival time, dose: 80.0 mg/kg/injection, schedule: Q04DX003 (ip), vehicle: Klucel (hydroxypropylcellulose) (HPC)) is 115 % of control.

For `CCCCCCCCCNP(=O)(OCc1ccccc1)N(CCCl)CCCl` (configuration not stated), the T/C (endpoint: mean survival time, dose: 25.0 mg/kg/injection, schedule: Q01DX001 (ip), vehicle: DMSO) was 94 % of control; the T/C (endpoint: mean survival time, dose: 50.0 mg/kg/injection, schedule: Q01DX001 (ip), vehicle: DMSO) was 94 % of control; the T/C (endpoint: mean survival time, dose: 100.0 mg/kg/injection, schedule: Q01DX001 (ip), vehicle: DMSO) was 95 % of control; the T/C (endpoint: mean survival time, dose: 200.0 mg/kg/injection, schedule: Q01DX001 (ip), vehicle: DMSO) is 94 % of control; the T/C (endpoint: mean survival time, dose: 400.0 mg/kg/injection, schedule: Q01DX001 (ip), vehicle: DMSO) is 91 % of control.

Consider `CCC(=O)OCC(=O)[C@]1(O)Cc2c(O)c3c(c(O)c2[C@@H](OC2CC(N)C(O)C(C)O2)C1)C(=O)c1c(OC)cccc1C3=O` (some centres not stated), for which the T/C is 112 % of control (endpoint: mean survival time, dose: 0.25 mg/kg/injection, schedule: Q01DX009 (ip), vehicle: saline); 122 % of control (endpoint: mean survival time, dose: 0.5 mg/kg/injection, schedule: Q01DX009 (ip), vehicle: saline); 166 % of control (endpoint: mean survival time, dose: 1.5 mg/kg/injection, schedule: Q04DX003 (ip), vehicle: saline sonified); 155 % of control (endpoint: mean survival time, dose: 2.0 mg/kg/injection, schedule: Q01DX009 (ip), vehicle: saline); 118 % of control (endpoint: mean survival time, dose: 2.0 mg/kg/injection, schedule: Q04DX003 (ip), vehicle: saline with Tween-80); 89 % of control (endpoint: mean survival time, dose: 8.0 mg/kg/injection, schedule: Q01DX009 (ip), vehicle: saline).

With `CC(C)=CCN1C(=O)c2ccccc2C1=O`, the T/C was 102 % of control under setting [1]; 101 % of control (endpoint: mean survival time, dose: 25.0 mg/kg/injection, schedule: Q04DX003 (ip), vehicle: saline with Tween-80); 98 % of control under setting [2]; 101 % of control (endpoint: mean survival time, dose: 50.0 mg/kg/injection, schedule: Q04DX003 (ip), vehicle: saline with Tween-80); 96 % of control (endpoint: mean survival time, dose: 100.0 mg/kg/injection, schedule: Q01DX009 (ip), vehicle: saline with Tween-80); 110 % of control under setting [3].

For `CC(C)(CC(=O)O)CC(=O)O.[NH-]C1CCCCC1[NH-].[Pt+2]`, the T/C was 87 % of control (endpoint: median survival time, dose: 3.12 mg/kg/injection, schedule: Q04DX003 (ip), vehicle: saline); 102 % of control (endpoint: median survival time, dose: 6.25 mg/kg/injection, schedule: Q04DX003 (ip), vehicle: saline); 98 % of control (endpoint: median survival time, dose: 12.5 mg/kg/injection, schedule: Q04DX003 (ip), vehicle: saline); 108 % of control (endpoint: median survival time, dose: 25.0 mg/kg/injection, schedule: Q04DX003 (ip), vehicle: saline); 101 % of control (endpoint: median survival time, dose: 50.0 mg/kg/injection, schedule: Q04DX003 (ip), vehicle: saline); 103 % of control (endpoint: median survival time, dose: 100.0 mg/kg/injection, schedule: Q04DX003 (ip), vehicle: saline). In addition, the T/C (endpoint: median survival time, dose: 200.0 mg/kg/injection, schedule: Q04DX003 (ip), vehicle: saline) was 112 % of control.
